Measurements as given in patent US20260069621A1, “Pentagalloyl glucose (PGG) for use in treatment of pulmonary hypertension” (Charité - Universitaetsmedizin Berlin, priority 2021, published 2026).

What was measured:
human PAs [1] = test: Ex vivo culture of human PAs followed by uniaxial tensile test; details: 0.1% PGG
Experimental: Uniaxial tensile test. Following harvesting, human PA samples were kept in normal saline on ice and assessed for biomechanics within 2-4 h. […] Loose connective and adipose tissue were carefully removed, and sample dimensions (length and width) were measured using a digital caliper. The circumferential tensile properties of PAs were assessed using a MyoDynamics Muscle Strip Myograph System (840DM, Danish Myo Technology, Hinnerup, Denmark) with controlled temperature (37° C.) and aeration. To this end, circumferential rectangular sections (2×8 mm) were excised from the pulmonary trunk and mounted at 5 mm length. […] From force-displacement curves, the following parameters were derived: stiffness of elastin (k1)- and collagen (k2)-enriched arterial material (calculated as the slopes of the toe- and linear regions, respectively), with stiffness (k, mN/mm) reflecting the resistance to deformation (ΔF/ΔL) generated by the respective material, and the strain at which the transition of load-bearing elements from elastin to collagen occurred (εTrans), defined based on force-displacement curve characteristics as the strain applied when F reached 100 mN.
Effects of PGG on PA biomechanics. The effect of PGG on PA biomechanical properties was assessed by ex vivo culture of PA specimens followed by uniaxial tensile testing. […]

human PAs [2] = test: Ex vivo culture of human PAs with or without elastase, EVG staining of elastic fibers
Experimental: Effects of PGG on PA biomechanics. The effect of PGG on PA biomechanical properties was assessed by ex vivo culture of PA specimens followed by uniaxial tensile testing. Freshly isolated PAs were handled under sterile conditions. One piece of the artery was excised and directly underwent uniaxial tensile testing to record PA biomechanics at baseline. The rest of the PA was prepared as 2×8-mm strips and placed in a 12-well plate for ex vivo culture in serum-free Dulbecco's modified Eagle's medium (DMEM, Gibco) supplied with penicillin-streptomycin (Thermo Fisher) at 37° C. with controlled humidity at 21% O2 and 5% CO2. PGG (penta-O-galloyl-β-D-glucose hydrate, Sigma-Aldrich) was dissolved in dimethyl sulfoxide (DMSO, Sigma-Aldrich) as a stock solution and added to the medium at a final concentration of 0.1%. […] The following four treatment conditions were tested: control, elastase only, PGG only and PGG prior to elastase. PGG treatment was performed for 1 h at 37° C. prior to culturing PAs for 24 h in the presence or absence of elastase. Control samples were incubated with the corresponding concentrations of DMSO. Histology. Human or rat PA samples were cryo-embedded in OCT Compound (Tissue-Tek) and sliced into 10 μm transverse sections on a Microm HM560 cryostat. […] EVG staining was quantified based on positively stained area on single-plane images using Fiji-ImageJ.

rat AAA model = details: local application; cited from earlier work
[3] = concentrations similar to 0.1%; cited from earlier work

Elastic fibers (EVG staining) after elastase treatment (human PAs [2]; 0.1% PGG, 1 U porcine elastase for 24 h): partially preserved | Elastin content (human PAs [2]; naïve PAs and PAs treated with elastase): increased elastin content
Compound: O=C(OC[C@H]1O[C@@H](OC(=O)c2cc(O)c(O)c(O)c2)[C@H](OC(=O)c2cc(O)c(O)c(O)c2)[C@@H](OC(=O)c2cc(O)c(O)c(O)c2)[C@@H]1OC(=O)c1cc(O)c(O)c(O)c1)c1cc(O)c(O)c(O)c1 [PGG, 1,2,3,4,6-Penta-O-galloyl-β-D-glucose]
εTrans in uniaxial tensile tests (human PAs [1]; elastase-treated PAs): increased | Load borne by elastic fibers (human PAs [1]; naïve PAs): increased the load borne by elastic fibers | Aneurysmal expansion (rat AAA model): reduce | Elastic fiber degeneration (rat AAA model): effectively decrease | Cytotoxicity [3]: minimal cytotoxicity
